How the values were obtained:
[1] = tested on: ALL patient donor 90811 xenograft; assay: Disease burden (blast cells) in bone marrow, patient-derived ALL xenograft donor 90811; format: in vivo, mouse; conditions: for Disease Burden in Bone Marrow, CD45/10% Mean: NOD-scid IL2Rγ null mice, dosed at 18% blasts in sentinels, bone marrow counts day 10 post-dose
From the text: Establishment of patient-derived xenografts: NOD-scid IL2Rγ null mice were used as hosts for patient-derived xenografts. Twenty-four hours prior to cell implant, mice received 1.0 Gy irradiation using a Radsource 2000 irradiator (Radsource technologies, Suwanee, Ga.). Frozen bone marrow isolates of mononuclear cells from patients with acute lymphoblastic leukemia were obtained from […] (Alameda, Calif.). Cells were thawed in a warm water bath. After thaw, RPMI-1640 media was slowly added to the bone marrow isolate suspension. The cells were washed with PBS and centrifuged to remove DMSO in freezing media. After centrifugation, the cells were suspended in PBS. For, implantation, 3.6×10^6 cells were injected into the tail vein of female NOD-scid IL2Rγ null mice designated as donor, or passage 0 mice. Approximately 7 weeks after implant, mice were euthanized. Bone marrow and spleen were collected using sterile technique. Spleens were mechanically disrupted using a sterile syringe end and mesh filter. Connective tissues from spleens were filtered out using 40um filters. Splenocytes and bone marrow cells were treated with red blood cell buffer lysis (BD lysis buffer, BD biosciences, San Jose, Calif.) for 15 minutes at room temperature. A sample of the cells was utilized for confirmation of engraftment. The percentage of blast cells was determined by the number of CD45 FITC, CD19 PE-Cy.5 (BD Biosciences, San Jose, Calif.) CD10 APC (Biolegend, San Diego, Calif.) triple positive cells via flow cytometry (FACScalibur, BD Biosciences, San Jose, Calif.). The majority of the cells (passage 1) were placed into freezing media (90% Heat inactivated fetal bovine serum and 10% DMSO). Subsequent xenograft experiments utilized passage 1 cells. Cells were implanted in the same manner done for donor mice (passage 0 mice). Starting 14-21 days post implant, 2-3 sentinel mice were euthanized to determine the percentage blast cells in the bone marrow. […] SGN-CD19A and non-specific ADC (also called h00-1269) were administered as a single intraperitoneal injection at 1.0, 3.0, or 10.0 mg/kg dose. Cyclophosphamide at 15 or 30 mg/kg (Baxter, Deefield, Ill.), Vincristine at 0.188 or 0.375 mg/kg (Hospira, Lake Forest, Ill.), and Doxorubicin at 1.24 or 2.475 mg/kg (Pfizer, NY, NY) were combined and administered as a single dose via intravenous injection into the lateral tail vein. Dexamethasone at 7.5 or 15 mg/kg (APP Pharmaceuticals, Schaumberg, Ill.) was given daily via intraperitoneal injection for five days. At pre-determined times post treatment, mice were euthanized for collection of bone marrow and determination of blast cell percentage via flow cytometry.
The response of human patient-derived ALL cells to single agent SGN-CD19A or CVAD was determined in mouse xenograft models. Bone marrow isolates from patients with ALL (donor 06343 and donor 90811) were used to establish xenografts in NOD-scid IL2Rgamma^null mice. After engraftment, patient-derived bone marrow cells were frozen and are referred to as passage 1 cells. Passage 1 cells were implanted into mice and assessed for presence of blast cells (CD45/CD10/CD19 positive cells). […] Mice were given either 1, 3, or 10 mg/kg of SGN-CD19A or 10 mg/kg of a non-specific ADC conjugated to MMAF (also called h00-1269). A maximum tolerated dose (MTD) of CVAD had previously been determined in the same mouse strain. Mice were given either CVAD at the MTD or at 50% of the MTD.
The response of human patient-derived ALL cells to the combination of SGN-CD19A and CVAD was also determined in the mouse xenograft model. Patient samples were engrafted as described above.

NALM6 cells = assay: In vitro cytotoxicity (CellTiter-Glo) on NALM6 cells; format: cell-based; conditions: 96 hours, minimally/low effective dose used for the combination
Method: Isobolograms: Cells were plated at 5000 per well in 384 well plates using Fluid-X liquid handler (Fluid-X, Boston, Mass.). SGN-CD19A and Vincristine were plated separately and serial diluted in 2×96 well plates per drug. SGN-CD19A and Vincristine were added to 384 well plates, either alone or in combination at range above and below the IC50 for each single agent using the Hamilton STAR automation robotics (Hamilton, Reno, Nev.). Cells were kept at 37° C. for 96 hours. Cell viability readout was performed using the CellTiter-Glo assay (Promega, Madison, Wis.). Luminescence was measured using the Envision plate reader (Perkin Elmer, Waltham, Mass.). Activity was determined by the luminescence of treated cells compared to that of untreated cells.
To verify the results of the in vivo SGN-CD19A plus vincristine or SGN-CD19A plus doxorubicin combinations, in vitro cytotoxicity experiments were performed. […] The concentration of each agent was serially diluted to include doses that would have no cytotoxicity to doses that would kill all cells. […] NALM-6 cells were also incubated with a combination of SGN-CD19A and doxorubicin, in a similar manner.

Molecule: C[C@@H]1C[C@H]2[C@@H]3CCC4=CC(=O)C=C[C@]4(C)[C@@]3(F)[C@@H](O)C[C@]2(C)[C@@]1(O)C(=O)CO [Dexamethasone]
- Disease Burden in Bone Marrow, CD45/10% Mean [1]: 91.8%

Molecule: O=P1(N(CCCl)CCCl)NCCCO1 (centres unmarked) [Cyclophosphamide]
- Disease Burden in Bone Marrow, CD45/10% Mean [1]: 94.4%

Molecule: COc1cccc2c1C(=O)c1c(O)c3c(c(O)c1C2=O)C[C@@](O)(C(=O)CO)C[C@@H]3O[C@H]1C[C@H](N)[C@H](O)[C@H](C)O1 [Doxorubicin]
- Disease Burden in Bone Marrow, CD45/10% Mean [1]: 86.7%
- cell kill as a single agent (NALM6 cells): approximately 20%

Molecule: CC[C@]1(O)C[C@H]2CN(CCc3c([nH]c4ccccc34)[C@@](C(=O)OC)(c3cc4c(cc3OC)N(C=O)[C@H]3[C@@](O)(C(=O)OC)[C@H](OC(C)=O)[C@]5(CC)C=CCN6CC[C@]43[C@@H]65)C2)C1 [Vincristine]
- Disease Burden in Bone Marrow, CD45/10% Mean [1]: 32.2%
- cell kill as a single agent (NALM6 cells): approximately 5%

B1: SGN-CD19A: CD19-directed antibody-drug conjugate: humanized antibody hBU12, maleimidocaproyl linker, monomethyl auristatin F (MMAF); average four drugs per antibody (conjugate)
VL: EIVLTQSPATLSLSPGERATLSCSASSSVSYMHWYQQKPGQAPRLLIYDTSKLASGIPARFSGSGSGTDFTLTISSLEPEDVAVYYCFQGSVYPFTFGQGTKLEIKR
VH: QVQLQESGPGLVKPSQTLSLTCTVSGGSISTSGMGVGWIRQHPGKGLEWIGHIWWDDDKRYNPALKSRVTISVDTSKNQFSLKLSSVTAADTAVYYCARMELWSYYFDYWGQGTLVTVSS
- Disease Burden in Bone Marrow, CD45/10% Mean [1]: 18.2%
- single agent dose response, blast cells in the bone marrow ([1]; SGN-CD19A 1, 3 or 10 mg/kg, CVAD at MTD or 50% of MTD, FIGS. 2B, 2D): decreasing amounts of blast cells in the bone marrow
